Assay results taken from PMC3097502, “Antitrypanosomal and Cytotoxic Activities of 22-Hydroxyclerosterol, a New Sterol from Allexis cauliflora (Violaceae)” (Scientia Pharmaceutica, 2011).

How the values were obtained:
[1] = test system: MRC-5 mammalian cells (fibroblasts); assay: Cytotoxicity assay (Alamar Blue, 72 h) on mammalian fibroblasts; type: cell-based; details: 72 h incubation
Description: (§1) Trypanosoma brucei brucei (strain 427) bloodstream forms were cultured in HMI-9 medium containing 10% heat-inactivated. The mammalian fibroblast cell line MRC-5 was grown in DMEM (Gibco) supplemented with 10% heat-inactivated FBS and extra glutamine. Cells were grown at 37 °C in humidified incubators in an atmosphere of 5% CO2 [13].
(§2) The assay performed, the long incubation low inoculation test (LITIT), was previously described by Räz et al., 1997 [14] with minor modifications by Baltz et al., 1985 [15]. To evaluate the selectivity of the in vitro antitrypanosomal activity, in vitro cytotoxicity tests were also performed. The same general method was used in order to facilitate the comparison.
(§3) The compounds were initially dissolved in DMSO at a concentration of 20 mg/ml and diluted with the medium. Series of dilution were done in 96-well plates; each dilution was tested in duplicate. Cells in suspension were thereafter added to each well at a density such as, after 72 h of incubation, in control wells the culture reached the end of logarithmic growth phase (T. brucei), or adhesive cells have formed a confluent monocellular film (mammal cells MRC-5). The highest concentration of DMSO was 0.5%. After 72 h of incubation, Alamar Blue, a marker of cell viability, was added in each well and fluorescence was quantified after a total incubation time of 76 h at an excitation wavelength of 530 nm and at an emission wavelength of 590 nm. ED50 values were calculated by linear interpolation. Assays with commercial drugs were also carried out in order to have reference values. All results represent average values obtained in at least three independent experiments, each experiment comprising a duplicate set of tests.

PGI of T. brucei = PGI of T. brucei (Trypanosoma brucei brucei, UniProt P13377); assay: Enzymatic inhibition of glycolytic enzyme PGI (T. brucei); type: biochemical; details: for Ki’ PGI of T. brucei: binding to enzyme-substrate (F6P/PGI) complex
PGI of T. brucei, sequence (P13377 whole entry): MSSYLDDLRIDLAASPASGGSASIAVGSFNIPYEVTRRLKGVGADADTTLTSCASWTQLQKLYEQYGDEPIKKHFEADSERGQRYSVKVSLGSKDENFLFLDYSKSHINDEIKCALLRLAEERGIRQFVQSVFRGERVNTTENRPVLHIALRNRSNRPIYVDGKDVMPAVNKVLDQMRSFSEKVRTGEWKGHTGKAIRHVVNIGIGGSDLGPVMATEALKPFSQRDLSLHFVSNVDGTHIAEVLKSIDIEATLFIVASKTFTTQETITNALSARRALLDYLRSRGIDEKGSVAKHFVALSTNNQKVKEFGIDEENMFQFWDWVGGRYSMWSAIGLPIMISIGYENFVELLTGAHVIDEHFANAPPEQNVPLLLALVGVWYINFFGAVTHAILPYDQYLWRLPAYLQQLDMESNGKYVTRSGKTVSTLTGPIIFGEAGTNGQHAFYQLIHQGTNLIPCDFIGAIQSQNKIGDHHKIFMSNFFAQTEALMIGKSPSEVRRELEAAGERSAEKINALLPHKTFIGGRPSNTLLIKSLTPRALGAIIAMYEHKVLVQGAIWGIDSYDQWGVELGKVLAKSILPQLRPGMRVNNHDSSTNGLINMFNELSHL

[2] = test system: Trypanosoma brucei brucei bloodstream form (strain 427); assay: Antitrypanosomal assay (LILIT, Alamar Blue, 72 h) on bloodstream forms; type: cell-based; details: for ED50, growth of Trypanosoma brucei (strain 427): bloodstream form, 72 h incubation, Alamar Blue
Description: as §1, §2, §3

GAPDH of T. brucei = GAPDH of T. brucei (Trypanosoma brucei brucei, UniProt P22512); assay: Enzymatic inhibition of GAPDH (T. brucei); type: biochemical
GAPDH of T. brucei, sequence (P22512 whole entry): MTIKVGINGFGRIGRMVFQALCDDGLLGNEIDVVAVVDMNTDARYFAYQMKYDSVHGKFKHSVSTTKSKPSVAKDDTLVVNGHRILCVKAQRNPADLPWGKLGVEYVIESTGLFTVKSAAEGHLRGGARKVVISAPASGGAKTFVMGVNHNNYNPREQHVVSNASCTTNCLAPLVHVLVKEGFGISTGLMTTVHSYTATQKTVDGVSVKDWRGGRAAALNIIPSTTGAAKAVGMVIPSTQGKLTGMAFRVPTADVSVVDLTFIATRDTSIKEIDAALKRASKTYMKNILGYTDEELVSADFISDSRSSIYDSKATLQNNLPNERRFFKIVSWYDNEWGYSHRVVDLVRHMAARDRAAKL

[3] = target: rabbit muscle pyruvate kinase (PyK) (Oryctolagus cuniculus, UniProt P11974); assay: Enzymatic inhibition of PyK (rabbit muscle); type: biochemical
rabbit muscle pyruvate kinase (PyK), sequence (P11974 whole entry): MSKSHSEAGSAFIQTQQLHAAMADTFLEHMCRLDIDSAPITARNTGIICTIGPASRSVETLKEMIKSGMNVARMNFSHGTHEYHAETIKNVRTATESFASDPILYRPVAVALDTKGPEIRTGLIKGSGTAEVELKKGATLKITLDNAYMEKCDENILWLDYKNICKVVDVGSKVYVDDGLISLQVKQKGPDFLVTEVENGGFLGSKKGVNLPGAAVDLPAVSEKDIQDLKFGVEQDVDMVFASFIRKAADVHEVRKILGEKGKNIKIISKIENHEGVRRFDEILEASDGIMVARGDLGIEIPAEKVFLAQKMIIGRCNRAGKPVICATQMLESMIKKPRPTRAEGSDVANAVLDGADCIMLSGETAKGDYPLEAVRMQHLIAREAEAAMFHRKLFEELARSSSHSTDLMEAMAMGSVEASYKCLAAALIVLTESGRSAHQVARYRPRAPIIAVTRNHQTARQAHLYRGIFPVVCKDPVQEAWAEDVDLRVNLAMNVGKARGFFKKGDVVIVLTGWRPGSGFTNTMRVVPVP

[4] = target: PyK of Leishmania mexicana (Leishmania mexicana, UniProt Q27686); assay: Enzymatic inhibition of PyK (L. mexicana); type: biochemical
PyK of Leishmania mexicana, sequence (Q27686 whole entry): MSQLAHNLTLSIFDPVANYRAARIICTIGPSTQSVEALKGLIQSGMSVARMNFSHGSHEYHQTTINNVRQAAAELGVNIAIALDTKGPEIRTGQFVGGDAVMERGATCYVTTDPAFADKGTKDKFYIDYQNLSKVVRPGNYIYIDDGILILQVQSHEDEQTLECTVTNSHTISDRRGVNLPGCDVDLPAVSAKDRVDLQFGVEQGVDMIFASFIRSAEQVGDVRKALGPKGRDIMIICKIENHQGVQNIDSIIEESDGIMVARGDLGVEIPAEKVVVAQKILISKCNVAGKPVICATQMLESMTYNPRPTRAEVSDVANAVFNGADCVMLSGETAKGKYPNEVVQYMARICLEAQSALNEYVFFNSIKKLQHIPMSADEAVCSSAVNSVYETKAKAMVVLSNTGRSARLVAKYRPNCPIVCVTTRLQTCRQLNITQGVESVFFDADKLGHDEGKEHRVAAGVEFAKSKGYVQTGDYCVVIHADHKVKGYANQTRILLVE

GAPDH Rabbit muscle = target: T1, GAPDH Rabbit muscle (Oryctolagus cuniculus, UniProt P46406); assay: Enzymatic inhibition of GAPDH (rabbit muscle); type: biochemical; details: n.i. = no inhibition observed at 50 μM
T1 construct: Rabbit muscle; from tissue; host or cells: rabbit muscle
T1 sequence (P46406 whole entry): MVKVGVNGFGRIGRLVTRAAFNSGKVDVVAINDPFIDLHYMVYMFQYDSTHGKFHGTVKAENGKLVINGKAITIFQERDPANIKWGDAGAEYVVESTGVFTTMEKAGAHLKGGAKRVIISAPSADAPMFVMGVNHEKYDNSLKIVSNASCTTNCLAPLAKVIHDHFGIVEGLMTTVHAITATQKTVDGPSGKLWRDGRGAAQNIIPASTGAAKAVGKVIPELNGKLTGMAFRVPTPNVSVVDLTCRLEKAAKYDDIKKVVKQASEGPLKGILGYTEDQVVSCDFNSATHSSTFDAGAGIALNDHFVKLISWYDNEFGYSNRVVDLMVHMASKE
Excerpt: Tab. 3. Enzymatic inhibition (IC50, μM) | column: GAPDH / Rabbit muscle

PGI Rabbit muscle = target: T2, PGI Rabbit muscle (Oryctolagus cuniculus, UniProt Q9N1E2); assay: Enzymatic inhibition of PGI (rabbit muscle); type: biochemical; details: n.i. = no inhibition observed at 50 μM
T2 construct: Rabbit muscle; from tissue; host or cells: rabbit muscle
Excerpt: Tab. 3. Enzymatic inhibition (IC50, μM) | column: PGI / Rabbit muscle

[5] = test system: MRC-5 mammalian cells (fibroblasts); design: method as in PMID 17637068; details: cited from earlier work
[6] = test system: Trypanosoma brucei brucei bloodstream form (strain 427); design: method as in PMID 17637068; details: cited from earlier work
[7] = n.i. = no inhibition observed at 50 μM

C=C(C)[C@@H](CC)CC(O)[C@@H](C)[C@H]1CC[C@H]2[C@@H]3CC=C4C[C@@H](O)CC[C@]4(C)[C@H]3CC[C@]12C (stereo partly drawn) [Compound 1, (3β,24S)-Stigmasta-5,25-diene-3,22-diol]
ED50, Mammalian cells (MRC-5 fibroblasts) [1]: 1.12 µM | IC50 (PGI of T. brucei): 30 ± 10 µM | affinity for F6P/PGI complex relative to affinity of natural substrate (F6P) for PGI (PGI of T. brucei; kinetic studies): 76 fold | type of inhibition of PGI of T. brucei (PGI of T. brucei; kinetic studies): uncompetitive inhibitor | Ki’ PGI of T. brucei (PGI of T. brucei; kinetic studies): 3 ± 1 µM | melting point: 166 to 168 °C | ED50, growth of Trypanosoma brucei (strain 427) [2]: 1.56 µM | fold more potent than compound 2 (ED50, T. brucei brucei growth) ([2]; ratio of ED50 values): 86 fold | IC50 (GAPDH of T. brucei): 30 ± 10 µM | Ki’ PyK of rabbit muscle ([3]; kinetic studies): 26 ± 3 µM | type of inhibition of PyK of rabbit muscle ([3]; kinetic studies): uncompetitive inhibitor | IC50 [4]: 30 ± 5 µM | Ki [4]: 24 ± 5 µM | Ki’ PyK of Leishmania mexicana ([4]; kinetic studies): 65 ± 10 µM | type of inhibition of PyK of Leishmania mexicana ([4]; kinetic studies): mixed inhibitor

C=C(C)[C@@H](CC)CC[C@@H](C)[C@H]1CC[C@H]2[C@@H]3CC=C4C[C@@H](O)CC[C@]4(C)[C@H]3CC[C@]12C [Compound 2, (3β,24S)-Stigmasta-5,25-dien-3-ol]
IC50 GAPDH Rabbit muscle (GAPDH Rabbit muscle): n.i. | ED50, Mammalian cells (MRC-5 fibroblasts) [1]: no effect | ED50, Mammalian cells (MRC-5 fibroblasts) ([1]; listed as compound 2): non toxic on mammalian cells | IC50 (PGI of T. brucei): 45 ± 10 µM | Ki (PGI of T. brucei): 10 ± 2 µM | type of inhibition of PGI of T. brucei (PGI of T. brucei; kinetic studies): mixed inhibitor | Ki’ PGI of T. brucei (PGI of T. brucei; kinetic studies): 68 ± 5 µM | IC50 PGI Rabbit muscle (PGI Rabbit muscle): n.i. | ED50, growth of Trypanosoma brucei (strain 427) [2]: 134.34 µM | toxicity to mammalian cells (known) [5]: non toxic to mammalian cells | antitrypanosomal activity (known) [6]: weak antitrypanosomal activity | IC50 GAPDH T. brucei (GAPDH of T. brucei; [7]): n.i. | IC50 PyK Rabbit muscle [3, 7]: n.i. | IC50 PyK L. mexicana [4, 7]: n.i.
